Reference: article PMC12203311, “Design, synthesis, in silico and in vitro evaluation of pyrrole–indole hybrids as dual tubulin and aromatase inhibitors with potent anticancer activities” (RSC Advances, 2025)

Assays:
Assay in all cases: NCI60 five-dose screen
[1] = system: OVCAR-4; format: cell-based; settings: Homo sapiens, OVCAR-4, ovarian cancer
[2] = system: NCI-H460; format: cell-based; settings: Homo sapiens, NCI-H460, NSC lung cancer
[3] = system: IGROV1; format: cell-based; settings: Homo sapiens, IGROV-1; IGROV1, ovarian cancer
[4] = system: CAKI-1; format: cell-based; settings: Homo sapiens, CAKI-1, renal cancer
[5] = system: SNB-19; format: cell-based; settings: Homo sapiens, SNB-19, CNS cancer
[6] = system: SK-MEL-28; format: cell-based; settings: Homo sapiens, SK-MEL-28, melanoma
[7] = system: RPMI-8226; format: cell-based; settings: Homo sapiens, RPMI-8226, leukemia
[8] = system: PC-3; format: cell-based; settings: Homo sapiens, PC-3, prostate cancer
[9] = system: LOX IMVI; format: cell-based; settings: Homo sapiens, melanoma
[10] = system: UACC-62; format: cell-based; settings: Homo sapiens, UACC-62, melanoma
[11] = system: SK-MEL-5; format: cell-based, human; settings: Homo sapiens
[12] = system: K-562; format: cell-based; settings: Homo sapiens, K562, K-562, leukemia
[13] = system: SK-MEL-2; format: cell-based; settings: Homo sapiens, SK-MEL-2, melanoma
[14] = system: SNB-75; format: cell-based; settings: Homo sapiens, SNB-75, CNS cancer
[15] = system: DU-145; format: cell-based; settings: Homo sapiens, DU-145, prostate cancer
[16] = system: NCI-H23; format: cell-based; settings: Homo sapiens, NCI-H23, NSC lung cancer
[17] = system: COLO 205; format: cell-based, human; settings: Homo sapiens
[18] = system: SN12C; format: cell-based; settings: Homo sapiens, renal cancer
[19] = system: ACHN; format: cell-based; settings: Homo sapiens, renal cancer
[20] = system: HCT-15; format: cell-based; settings: Homo sapiens, HCT-15, colon cancer
[21] = system: BT-549; format: cell-based; settings: Homo sapiens, BT-549, breast cancer
[22] = system: HL-60 (TB); format: cell-based; settings: Homo sapiens, leukemia
[23] = system: OVCAR-3; format: cell-based; settings: Homo sapiens, OVCAR-3, ovarian cancer
[24] = system: MDA-MB-231/ATCC; format: cell-based; settings: Homo sapiens, breast cancer
[25] = system: A549/ATCC; format: cell-based; settings: Homo sapiens, NSC lung cancer
[26] = system: SF-295; format: cell-based; settings: Homo sapiens, SF-295, CNS cancer
[27] = system: NCI-H522; format: cell-based; settings: Homo sapiens, NCI-H522, NSC lung cancer
[28] = system: SK-OV-3; format: cell-based; settings: Homo sapiens, SK-OV-3, ovarian cancer
[29] = system: EKVX; format: cell-based; settings: Homo sapiens, NSC lung cancer
[30] = system: NCI/ADR-RES; format: cell-based, human; settings: Homo sapiens, ovarian cancer
[31] = system: TK-10; format: cell-based; settings: Homo sapiens, TK-10, renal cancer
[32] = system: HOP-62; format: cell-based; settings: Homo sapiens, HOP-62, NSC lung cancer
[33] = system: OVCAR-8; format: cell-based; settings: Homo sapiens, OVCAR-8, ovarian cancer
[34] = system: U251; format: cell-based; settings: Homo sapiens, U-251, U251, CNS cancer
[35] = system: UACC-257; format: cell-based; settings: Homo sapiens, UACC-257, melanoma
[36] = system: MCF7; format: cell-based; settings: Homo sapiens
[37] = read-out: LC50 (the source's name)

Cn1cccc1/C=N/NC(=O)c1[nH]c2ccc(Br)cc2c1-c1ccccc1 [Derivative 3d, (E)-5-Bromo-N′-((1-methyl-1H-pyrrol-2-yl)methylene)-3-phenyl-1H-indole-2-carbohydrazide]
GI50 [1]: 637 nM | CC50 [1, 37]: > 100 µM | GI50 [2]: 442 nM | CC50 [2, 37]: > 100 µM | GI50 [3]: 621 nM | GI50 [4]: 255 nM | CC50 [4, 37]: > 100 µM | GI50 [5]: 449 nM | CC50 [5, 37]: > 100 µM | GI50 [6]: 4.7 µM | CC50 [6, 37]: > 100 µM | GI50 [7]: 610 nM | CC50 [7, 37]: > 100 µM | GI50 [8]: 564 nM | CC50 [8, 37]: > 100 µM | GI50 [9]: 494 nM | CC50 [9, 37]: > 100 µM | GI50 [10]: 283 nM | CC50 [10, 37]: > 100 µM | CC50 ([11]; SK-MEL-5, SK-MEL-5, melanoma, read-out: LC50 (the source's name)): > 100 µM | GI50 ([11]; SK-MEL-5, melanoma): 196 nM | GI50 [12]: 327 nM | CC50 [12, 37]: > 100 µM | GI50 [13]: 366 nM | CC50 [13, 37]: > 100 µM | GI50 [14]: 259 nM | CC50 [14, 37]: > 100 µM | GI50 [15]: 399 nM | CC50 [15, 37]: > 100 µM | GI50 [16]: 447 nM | CC50 [16, 37]: > 100 µM | CC50 ([17]; COLO 205, COLO 205, colon cancer, read-out: LC50 (the source's name)): > 100 µM | GI50 ([17]; COLO 205, colon cancer): 366 nM | GI50 [18]: 497 nM | CC50 [18, 37]: > 100 µM | GI50 [19]: 175 nM | CC50 [19, 37]: > 100 µM | GI50 [20]: 228 nM | CC50 [20, 37]: > 100 µM | GI50 [21]: 2810 nM | CC50 [21, 37]: > 100 µM | GI50 [22]: 317 nM | CC50 [22, 37]: > 100 µM | GI50 [23]: 246 nM | CC50 [23, 37]: > 100 µM | GI50 [24]: 237 nM | CC50 [24, 37]: > 100 µM | GI50 [25]: 649 nM | CC50 [25, 37]: > 100 µM | GI50 [26]: 321 nM | CC50 [26, 37]: > 100 µM | GI50 [27]: 217 nM | CC50 [27, 37]: > 100 µM | GI50 [28]: 1610 nM | CC50 [28, 37]: > 100 µM | GI50 [29]: 641 nM | CC50 [29, 37]: > 100 µM | GI50 [30]: 186 nM | CC50 [30, 37]: 40.9 µM | GI50 [31]: 1010 nM | CC50 [31, 37]: > 100 µM | GI50 [32]: 570 nM | CC50 [32, 37]: > 100 µM | GI50 [33]: 390 nM | CC50 [33, 37]: > 100 µM | GI50 [34]: 477 nM | CC50 [34, 37]: > 100 µM | GI50 [35]: 416 nM | CC50 [35, 37]: > 100 µM | GI50 ([36]; MCF7, MCF-7 breast cancer cells): 72 nM | CC50 ([36]; MCF7, breast cancer, read-out: LC50 (the source's name)): > 100 µM
